# Data taken from patent publication US20100210597A1, “C21-Deoxy Ansamycin Derivatives as Antitumor Agents” (priority 2007, published 2010).
# Read-outs that look alike come from different tables or passages of the source.
# Columns and labels:
# Caco-2 cells = assay: In vitro Caco-2 assay for cell permeability; type: in vitro ADME; settings: 10 uM, 2 hour incubation
# Procedure: (§1) Caco-2 cells (ATCC Cat. # HTB-37) were grown on fibrillar collagen-coated, microporous, polycarbonate membranes in 24-well BioCaot™ insert plates. Following 5-day growth in Eagle's minimum essential medium supplemented with 10% FBS, the cells were exposed to BioCoat Enterocyte Differentiation Medium (BD, Cat. # 05496) for 2 days to induce enterocytic differentiation. Prior to dosing, the transepithelial electric resistance (TEER) of the Caco-2 cells in each well was measured to ensure the quality of the monolayers.
# (§2) The stock solutions of test compounds were prepared at 3 mM in DMSO. Dosing solutions were prepared in the permeability assay buffer at 10 μm. The permeability assay buffer was Hank's balanced salt solution containing 10 mM HEPES at a pH of 7.4±0.2.
# (§3) The Caco-2 cells were dosed with the test compounds on either apical side (for A-to-B permeation) or basolateral side (for B-to-A permeation) and incubated at 37° C. with 5% CO2 and 90% relative humidity. The testing for each compound was performed in duplicate. After 2 hour incubation, a 20-μL sample was taken from each of dosing solutions and both donor and receiver compartments. To ensure the validity of the Caco-2 assay, propranolol and vinblastine were used as a high- and a low- to medium-permeability positive control, respectively. Vinblastine also served as a P-gp substrate, tested in conjunction with a P-gp inhibitor, verapamil.
# (§4) To quantify test compounds by LC/MS/MS, a related geldanamycin-like compound, 17-methoxyethylamino geldanamycin (Schnur et al., 1995), was used as the internal standard. The calculation of permeability of each compound involved only the concentration ratio of the same test compound, the concentration ratio was expressed in the peak area ratio of the test compound to the internal standard. The peak area ratio of each compound was derived by LC-MS/MS.
# (§5) The apparent permeability coefficient Papp was calculated as below: […]
# (§6) dCr: cumulative concentration in the receiver compartment in M. dt: duration of the assay (i.e., 7200 seconds). Vr: volume of the receiver compartment in cm^3. A: area of the cell monolayer (0.31 cm^2 for 24-well BioCoat™ plate). C0: concentration of the dosing solution in M.
# (§7) The in vitro permeability of 20 and the parent 17 were assayed using caco-2 cells, as described in the general methods. All compounds were analysed at a concentration of 10 uM.
# [1] = In vitro Caco-2 assay for cell permeability; type: in vitro ADME; settings: human, Caco-2, pH 7.4, 10 uM, 2 hour incubation
# Procedure: as §1, §2, §3, §4, §5, §6, §7
# [2] = In vivo pharmacokinetic assay in mice; design: species or system mouse; settings: female CD-1 mice
# Procedure: The test compound was prepared directly in endotoxin free water. A single dose of 10 mg/kg p.o. or 3 mg/kg i.v. was administered to groups of female CD1 mice (3 mice for each compound per time point). Dose volumes were 10 mL/kg for both oral and intravenous administration. At 4 minutes and 0.25, 0.5, 1, 2, 4, 8, 24 hours groups were sacrificed and plasma was collected from each mouse for further analysis. For oral dosing, a single dose of Test Article was administered via oral gavage to the mice. For intravenous dosing, a single dose of Test article was administered intravenously to mice via the tail veins.
# The concentration of the relevant compounds in the plasma samples was determined by HPLC with MS detection.
# • Mass spectrometer: API 3200 Q Trap triple quadruple mass spectrometer • Liquid chromatography: Agilent 1200/PAL HTC Autosampler • Ionization Mode: Electrospray (may be changed depending on the TA) • Monitoring: Multiple Reaction Monitoring • LC chromatography BetaBastic-8, 50×2.1 mm, 5 μm (may separation: be changed depending on the TA)
# Based on the peak area ratios of test article to an internal standard, 17-Methoxyethylamino Geldanamycin (Schnur et al., 1995), concentrations of an unknown sample were obtained by a calibration curve.
# Test plasma sample (0.05 ml), analyte free mouse whole serum (0.05 ml), internal standard solution (0.1 ml of 10 mg/mL 17-Methoxyethylamino geldanamycin (Schnur et al., 1995) dissolved in methanol) and acetonitrile (0.5 ml) were pipetted into a 2-mL polypropylene tube and the contents of the tubes were mixed for a minimum of 5 minutes (Vibrax mixer). The tubes were then centrifuged in a microfuge for a minimum of 2 minutes at 12,000 rpm. 0.1 ml of the solvent layer was transferred into a 2-mL polypropylene tube containing 1 mL acid diluent (0.1% formic acid). The tubes were then mixed for a minimum of 5 minutes (Vibrax mixer) and then centrifuged at approximately 3500 rpm for 5 minutes. The extracts were transferred to auto-sampler vials and placed in the auto sampler tray which was set at ambient temperature. The auto-sampler was programmed to inject a 0.005 ml aliquot of each extract onto the analytical column.
# In vivo confirmation of the cleavage of 20 to the parent molecule, 17, was carried out as described in the general methods.
# Female CD-1 mice were given single doses of 20, either intravenously at 3 mg/kg, or orally at 10 mg/kg. Plasma samples were then collected at 8 time points (0.067, 0.25, 0.5, 1, 2, 4, 8 and 24 h postdose) over a 24-h period. The amounts of 20 and 17 in the samples were then analysed. […] After iv administration, 20 was only detected up to 0.25 hours after dosing, whilst 17 was detected up to 4 hours after dosing.
# Hsp90 = settings: shown in WO2007/074347 (there compound 14); cited from earlier work
# [3] = Water solubility assay, thermodynamic measurement; type: physicochemical; settings: 5% glucose, 6 hours, room temperature
# Procedure: Thermodynamic Measurements: • The appropriate amounts of compound to make solutions of the compounds at 2, 5, 10 and or 20 mM were mixed with the appropriate amounts of 5% glucose and with DMSO in brown glass vials and shaken at room temperature on an IKA® vibrax VXR shaker. After 6 hours the resulting suspensions/solutions were centrifuged for 20 min at 13200 rpm. • Aliquots of the supernatant fluid were then analysed by an Agilent 1100 HPLC coupled to a Bruker Daltonics Esquire3000 electrospray mass spectrometer (for details see specific examples herein). Chromatography was achieved over a Phenomenex Hyperclone column, BDS C18 3u (150×4.6 mm), with a linear gradient of acetonitrile:water (40:60 to 100) over 11 min at 1 mL/min. UV absorbance was monitored at λ=258 and 280 nm. • All analyses were performed in triplicate and the solubilities of individual compounds calculated by comparing their solubility in 5% glucose with an assumed solubility of 100% in DMSO.
# Solubility in 2% DMSO in PBS at each time point was determined by comparing total peak areas for each chromatogram with mean total peak area for chromatograms produced from the corresponding 6 hour DMSO solutions. (Mean total peak area in DMSO solutions was assumed to be equivalent to a 0.5 mM solution). The solubility of compound 17 was measured by a thermodynamic assay as described in the general methods.
smiles,measurement,setting,value
"CO[C@H]1C[C@H](C)Cc2cc(O)cc(c2)NC(=O)/C(C)=C/CC[C@H](C)[C@@H](OC(N)=O)/C(C)=C/[C@H](C)[C@H]1O [Compound 17, 4,5-dihydro-11-O-demethyl-15-demethoxy-18,21-didehydro-21-deoxomacbecin]",Efflux Limited,Caco-2 cells,"Yes (Papp (B → A)/Papp (A → B) ≧ 3, and Papp (B → A) ≧ 1.0 × 10^-6 cm/s)"
same,"efflux ratio at 2 h, 10 uM",[1]; read-out: Efflux ratio Papp(B → A)/Papp(A → B),6.8
same,"Papp A→B at 2 h, 10 uM",[1]; read-out: Permeability Apical to Basolateral Papp(A → B) Mean,0.44 ×10⁻⁶ cm/s
same,"Papp A→B at 2 h, 10 uM",[1]; read-out: Permeability Apical to Basolateral Papp(A → B) Rep. 1,0.39 ×10⁻⁶ cm/s
same,"Papp A→B at 2 h, 10 uM",[1]; read-out: Permeability Apical to Basolateral Papp(A → B) Rep. 2,0.49 ×10⁻⁶ cm/s
same,"Papp B→A at 2 h, 10 uM",[1]; read-out: Permeability Basolateral to Apical Papp(B → A) Mean,2.95 ×10⁻⁶ cm/s
same,"Papp B→A at 2 h, 10 uM",[1]; read-out: Permeability Basolateral to Apical Papp(B → A) Rep. 1,1.7 ×10⁻⁶ cm/s
same,"Papp B→A at 2 h, 10 uM",[1]; read-out: Permeability Basolateral to Apical Papp(B → A) Rep. 2,4.21 ×10⁻⁶ cm/s
same,detected in plasma up to (time after dosing),[2]; single intravenous dose of 20 at 3 mg/kg,up to 4 hours
same,detected in plasma up to (time after dosing),[2]; single oral dose of 20 at 10 mg/kg,up to 8 hours
same,Hsp90 inhibition,Hsp90,potent Hsp90 inhibitor
same,solubility,[3],716 µM
